{"source": "patent US8580820B2", "about": "“Tubulysin compounds with high cytotoxicity, pharmaceutical compositions thereof, and method of use thereof” (Kemtech S.r.L., priority 2009, dated 2013)", "key": {"C6 (rat glioma)": {"tested_on": "C6 (rat glioma)", "assay": "Cytotoxicity in vitro, cellular viability (ATPlite Perkin Elmer test), C6", "assay_type": "cell-based", "conditions": "Rattus norvegicus; cellular line C6; read-out: GI50", "procedure": "(§1) The cytotoxic effects of the compounds of formula (A) were evaluated by treating […] with different concentrations of the compounds under screening. The following cell lines were used: A2780 (human ovarian carcinoma), HL60 (human leukaemia), C6 (rat glioma) and HT29 (adenocarcinoma of human colon). The cell lines have been obtained by ECACC (European Collection of Cell Cultures).\n(§2) The cell lines have been cultured in 75 cm^2 flasks with culture medium DMEM (Dulbecco's Medium Eagle Modified, Sigma Aldrich®) and the following additives (Sigma Aldrich®): L-Glutamine 2 mM, 10% Fetal Bovine Serum, Penicillin/-Streptomycin, Fungizone, Gentamycin. The incubation was carried out in modified atmosphere incubators (37° C., 5% CO2). When cell confluence was obtained, the cells were propagated by dilution in a ratio 1:3/1:5 by using a Trypsin-EDTA 1× solution and then transferred into 96 well plates in the suitable culture medium. The cells were then treated for 72 hours with different concentrations (10^−13+10^−4 M) of the compounds under examination. For the tests in vitro the compounds obtained in the examples 1.15 and 6.8 were solubilised in dimethylsulphoxide (DMSO). All the tests were performed with a constant DMSO concentration equal to 0.1% by weight.\n(§3) In order to control the cellular viability, the ATPlite test (Perkin Elmer) was used. The APTlite test evaluates the ATP production. APT is a marker of cellular viability as it is present in all the metabolically active cells. The test’ is based on the chemiluminiscence due to the ATP reaction with the luciferase and the D-luciferin. The emitted light is proportional to the ATP concentration. For the reading the Victor 3 instrument by Perkin Elmer was used.\n(§4) Four readings were taken for each sample solution. The results (average values) for the cytotoxicity of the compounds of formula (A) obtained in examples 1.15 and 6.8 are reported respectively in Tables 1 and 2. It is noted that the GI50 values determined by means of the cellular viability values are lower than 2 nM. This confirms the high cytotoxicity of the compound of formula (A)."}, "[1]": {"tested_on": "A2780 (human ovarian carcinoma)", "assay": "Cytotoxicity in vitro, cellular viability (ATPlite Perkin Elmer test), A2780", "assay_type": "cell-based", "design": "cellular viability (ATPlite Perkin Elmer test): unit not given here", "conditions": "for GI50: Homo sapiens", "procedure": "as §1, §2, §3, §4"}, "HL60 (human leukaemia)": {"tested_on": "HL60 (human leukaemia)", "assay": "Cytotoxicity in vitro, cellular viability (ATPlite Perkin Elmer test), HL60", "assay_type": "cell-based", "design": "cellular viability (ATPlite Perkin Elmer test): unit not given here", "procedure": "as §1, §2, §3, §4"}, "[2]": {"tested_on": "A2780, HL60, C6 and HT29 cell lines", "assay": "Cytotoxicity in vitro, summary over the cell lines of example 14", "assay_type": "cell-based, human; rat", "conditions": "all cell lines of Tables 1 and 2; read-out: GI50 values determined by means of the cellular viability values", "procedure": "as §1\nas §2, with “All the tests were performed with a constant DMSO concentration equal to 0.1% by weight.” left out\n(§5) In order to control the cellular viability, the ATPlite test (Perkin Elmer) was used. […] For the reading the Victor 3 instrument by Perkin Elmer was used.\nFour readings were taken for each sample solution. […]"}, "[3]": {"tested_on": "HT29 (adenocarcinoma of human colon)", "assay": "Cytotoxicity in vitro, cellular viability (ATPlite Perkin Elmer test), HT29", "assay_type": "cell-based", "design": "cellular viability (ATPlite Perkin Elmer test): unit not given here", "conditions": "for cellular viability (ATPlite Perkin Elmer test): 72 hours", "procedure": "as §1, §2, §3, §4"}, "[4]": {"tested_on": "cellular lines HL60, A 2780, C6", "assay": "Cytotoxicity test in vitro on cellular lines (comparative examples 16.10, 17.10)", "assay_type": "cell-based, human; rat", "procedure": "as §1\nThe cell lines have been cultured in 75 cm^2 flasks with culture medium DMEM (Dulbecco's Medium Eagle Modified, Sigma Aldrich®) and the following additives (Sigma Aldrich®): L-Glutamine 2 mM, 10% Fetal Bovine Serum, Penicillin/-Streptomycin, Fungizone, Gentamycin. The incubation was carried out in modified atmosphere incubators (37° C., 5% CO2). When cell confluence was obtained, the cells were propagated by dilution in a ratio 1:3/1:5 by using a Trypsin-EDTA 1× solution and then transferred into 96 well plates in the suitable culture medium. […]\nas §5\nThe compound obtained in example 16.9 has been evaluated with the cytotoxicity test in vitro on cellular lines. […]\nThe cytotoxicity of the compound of the example 17.9 comparative was evaluated as described in example 16.10 comparative for the compound 16.9."}}, "note": "Read-outs that look alike come from different tables or passages of the source."}
{"compound": "CC[C@H](C)[C@H](NC(=O)C1CCCCN1C)C(=O)N[C@H](C[C@@H](OC(C)=O)c1nc(C(=O)N[C@@H](Cc2ccccc2)C[C@H](C)C(=O)O)cs1)c1ccc(OC)cc1", "note": "(stereo partly drawn) [Example 16.9, (2S,4R)-4-(2-((1R,3R)-1-acetoxy-3-(4-methoxy-phenyl)-3-((2S,3S)-3-methyl-2-((R)-1-methylpiperidin-2-carbox-amido)pentanamido)propyl)thiazol-4-carboxamido)-2-methyl-5-phenylpentanoic acid, reference compound]", "values": [{"measurement": "GI50", "setting": "C6 (rat glioma)", "result": "> 10", "unit": "µM"}, {"measurement": "GI50", "setting": "[1]; cellular line A 2780, read-out: GI50", "result": "> 100000", "unit": "nM"}, {"measurement": "GI50", "setting": "HL60 (human leukaemia); Homo sapiens, cellular line HL 60, read-out: GI50", "result": "> 10", "unit": "µM"}]}
{"compound": "CCC(C)[C@H](NC(=O)[C@H]1CCCCN1C)C(=O)N(Cc1ccccc1)[C@H](C[C@@H](OC(C)=O)c1nc(C(=O)N[C@@H](Cc2ccccc2)C[C@H](C)C(=O)O)cs1)C(C)C", "note": "(stereo in doubt) [Example 1.15, (2S,4R)-4-(2-((1R,3R)-1-acetoxy-3-((2S,3R)—N-benzyl-3-methyl-2-(1-methylpiperidin-2-carboxamido)pentanamido)-4-methylpentyl)thiazol-4-carboxamido)-2-methyl-5-phenyl-pentanoic acid]", "values": [{"measurement": "GI50", "setting": "[2]", "result": "< 0.002", "unit": "µM"}, {"measurement": "GI50", "setting": "[1]; 72 hours, value is GI50 multiplied by 10^9, Table 1, read-out: GI50 × 10^9", "result": 0.0018, "unit": "nM"}, {"measurement": "cellular viability (ATPlite Perkin Elmer test)", "setting": "[1]; compound 10^−4 mole/litre, 72 hours", "result": 3.10}, {"measurement": "cellular viability (ATPlite Perkin Elmer test)", "setting": "[1]; compound 10^−5 mole/litre, 72 hours", "result": 7.23}, {"measurement": "cellular viability (ATPlite Perkin Elmer test)", "setting": "[1]; compound 10^−6 mole/litre, 72 hours", "result": 9.60}, {"measurement": "cellular viability (ATPlite Perkin Elmer test)", "setting": "[1]; compound 10^−7 mole/litre, 72 hours", "result": 10.60}, {"measurement": "cellular viability (ATPlite Perkin Elmer test)", "setting": "[1]; compound 10^−8 mole/litre, 72 hours", "result": 11.78}, {"measurement": "cellular viability (ATPlite Perkin Elmer test)", "setting": "[1]; compound 10^−9 mole/litre, 72 hours", "result": 25.08}, {"measurement": "cellular viability (ATPlite Perkin Elmer test)", "setting": "[1]; compound 10^−10 mole/litre, 72 hours", "result": 25.04}, {"measurement": "cellular viability (ATPlite Perkin Elmer test)", "setting": "[1]; compound 10^−11 mole/litre, 72 hours", "result": 32.71}, {"measurement": "cellular viability (ATPlite Perkin Elmer test)", "setting": "[1]; compound 10^−12 mole/litre, 72 hours", "result": 65.66}, {"measurement": "cellular viability (ATPlite Perkin Elmer test)", "setting": "[1]; compound 10^−13 mole/litre, 72 hours", "result": 100.1}, {"measurement": "GI50 × 10^9", "setting": "HL60 (human leukaemia); HL60, 72 hours, value is GI50 multiplied by 10^9, Table 1", "result": 0.0004, "unit": "moles/litre"}, {"measurement": "cellular viability (ATPlite Perkin Elmer test)", "setting": "HL60 (human leukaemia); HL60, compound 10^−4 mole/litre, 72 hours", "result": 0.47}, {"measurement": "cellular viability (ATPlite Perkin Elmer test)", "setting": "HL60 (human leukaemia); HL60, compound 10^−5 mole/litre, 72 hours", "result": 2.57}, {"measurement": "cellular viability (ATPlite Perkin Elmer test)", "setting": "HL60 (human leukaemia); HL60, compound 10^−6 mole/litre, 72 hours", "result": 2.99}, {"measurement": "cellular viability (ATPlite Perkin Elmer test)", "setting": "HL60 (human leukaemia); HL60, compound 10^−7 mole/litre, 72 hours", "result": 2.69}, {"measurement": "cellular viability (ATPlite Perkin Elmer test)", "setting": "HL60 (human leukaemia); HL60, compound 10^−8 mole/litre, 72 hours", "result": 2.94}, {"measurement": "cellular viability (ATPlite Perkin Elmer test)", "setting": "HL60 (human leukaemia); HL60, compound 10^−9 mole/litre, 72 hours", "result": 3.66}, {"measurement": "cellular viability (ATPlite Perkin Elmer test)", "setting": "HL60 (human leukaemia); HL60, compound 10^−10 mole/litre, 72 hours", "result": 8.29}, {"measurement": "cellular viability (ATPlite Perkin Elmer test)", "setting": "HL60 (human leukaemia); HL60, compound 10^−11 mole/litre, 72 hours", "result": 22.65}, {"measurement": "cellular viability (ATPlite Perkin Elmer test)", "setting": "HL60 (human leukaemia); HL60, compound 10^−12 mole/litre, 72 hours", "result": 34.26}, {"measurement": "cellular viability (ATPlite Perkin Elmer test)", "setting": "HL60 (human leukaemia); HL60, compound 10^−13 mole/litre, 72 hours", "result": 98.98}, {"measurement": "GI50", "setting": "[3]; Homo sapiens, HT-29, 72 hours, value is GI50 multiplied by 10^9, Table 1", "result": 0.000312, "unit": "µM"}, {"measurement": "cellular viability (ATPlite Perkin Elmer test)", "setting": "[3]; compound 10^−4 mole/litre", "result": 15.14}, {"measurement": "cellular viability (ATPlite Perkin Elmer test)", "setting": "[3]; compound 10^−5 mole/litre", "result": 14.55}, {"measurement": "cellular viability (ATPlite Perkin Elmer test)", "setting": "[3]; compound 10^−6 mole/litre", "result": 15.43}, {"measurement": "cellular viability (ATPlite Perkin Elmer test)", "setting": "[3]; compound 10^−7 mole/litre", "result": 16.85}, {"measurement": "cellular viability (ATPlite Perkin Elmer test)", "setting": "[3]; compound 10^−8 mole/litre", "result": 17.55}, {"measurement": "cellular viability (ATPlite Perkin Elmer test)", "setting": "[3]; compound 10^−9 mole/litre", "result": 20.77}, {"measurement": "cellular viability (ATPlite Perkin Elmer test)", "setting": "[3]; compound 10^−10 mole/litre", "result": 99.08}, {"measurement": "cellular viability (ATPlite Perkin Elmer test)", "setting": "[3]; compound 10^−11 mole/litre", "result": 102.2}, {"measurement": "cellular viability (ATPlite Perkin Elmer test)", "setting": "[3]; compound 10^−12 mole/litre", "result": 103.2}, {"measurement": "cellular viability (ATPlite Perkin Elmer test)", "setting": "[3]; compound 10^−13 mole/litre", "result": 104.5}]}
{"compound": "CC[C@H](C)[C@H](NC(=O)[C@H]1CCCCN1C)C(=O)N[C@H](C[C@@H](OC(C)=O)c1nc(C(=O)N[C@@H](Cc2ccccc2)C[C@H](C)C(=O)O)cs1)C1CCCCC1", "note": "[Example 17.9, (2S,4R)-4-(2-((1R,3R)-1-acetoxy-3-cyclohexyl-3-((2S,3S)-3-methyl-2-((R)-1-methyl-piperidin-2-carboxamido)pentanamido)propyl)thiazol-4-carboxamido)-2-methyl-5-phenyl pentanoic acid]", "values": [{"measurement": "GI50", "setting": "[4]; Homo sapiens, HL60/A, evaluated as in example 16.10, cellular line not stated", "result": 10, "unit": "µM"}, {"measurement": "times higher than the GI50 of the compounds of the invention", "setting": "[4]; ratio of GI50 values", "result": "10,000 times"}]}
